Test results as given in patent publication US20030109501A1, “High throughput assay for N-sulfotransferase activity of glucosaminyl N-deacetylase/N-sulfotransferases” (priority 2001, published 2003).

Tests used:
Type in all cases: biochemical
[1] = target: T1, recombinant human sulfotransferase domain of NDST-2 (ST2) (Homo sapiens, UniProt P52849); assay: Solid phase SPA assay for N-sulfotransferase activity (ST2); conditions: ST2 2.5 μg/well, room temperature 5 h; for IC50: fully desulfated heparin pre-coated WGA-SPA beads, 35[S]-PAPS 10 nCi/well
T1 construct: subcloning the N-sulfotransferase domain of NDST-2 from the vector pFASTBac-GST-NDST-2; made in house; host or cells: E. coli BL21(DE3)pLysS
T1 sequence (P52849 598-883 limits assumed): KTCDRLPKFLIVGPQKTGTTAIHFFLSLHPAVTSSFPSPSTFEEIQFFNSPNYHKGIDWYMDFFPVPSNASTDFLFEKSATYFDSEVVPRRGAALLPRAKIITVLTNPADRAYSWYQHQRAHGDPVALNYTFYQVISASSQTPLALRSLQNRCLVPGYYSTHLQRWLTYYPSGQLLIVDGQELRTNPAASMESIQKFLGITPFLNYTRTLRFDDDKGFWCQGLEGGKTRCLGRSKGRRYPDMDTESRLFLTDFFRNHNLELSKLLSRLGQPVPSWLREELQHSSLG
Procedure: (§1) The assays were conducted at room temperature in Reaction Buffer whose components were described in Example 3. The following components were added into the wells of a 96-well white plate (29444-020, Corning, N.Y.) at a final volume of 100 μl/well.
(§2) 1. 25 μl of the Reaction Buffer.
(§3) 2. 25 μl of desulfated heparin-coated beads (20 mg/ml, 500 μg/well).
(§4) 3. 25 μl of enzyme (ST2, 0.1 mg/ml, 2.5 μg/well or NDST-2, 17.6 μg/ml, 0.44 μg/well) and the plate was incubated on a shaker with slight agitation for 2 min.
(§5) 4. 25 μl of ^35[S]-PAPS (NEG-010, 0.832 mCi/ml, NEN Life Science, Boston, Mass.) (0.4 μCi/ml, 10 nCi/well).
The plate was sealed and incubated for 2-24 h. Radioactivity of the plate was then read in a Packard TopCount microplate scintillation counter (Packard Instrument, Downers Grove, Ill.). The signal-to-noise ratio is the result of counts-per-minute (CPM) in the presence of enzyme divided by counts-per-minute in the absence of enzyme.
(§6) A list of 335 compounds was obtained from a search of the Bristol-Myers Squibb inventoried database using the PHASE program and the bound conformation of PAPS taken from the NDST-1 crystal structure [Kakuta, Y. et al. (1999) J. Biol. Chem. 274, 10673-10676]. The PHASE program is an internally developed program for database searches based on ligand molecular shape and pharmacophroic elements. […] Percentage of inhibition was determined by equation; % Inhibition=(1-cpm with compound/cpm without compound)×100. […]
The plate was incubated at room temperature and 5 h. The plate was read in the TopCount scintillation counter. […] The Km of PAPS is determined as a PAPS concentration by using the Michaelis-Menten equation: y=5×10^−5x+5×10^−5.
Compound A (FIGS. 6A and C) and Compound B (FIGS. 6B and D) in DMSO were added into 96-well white plates at the indicated concentrations. […] The plates were read in the TopCount microplate scintillation counter. Percentage of inhibition was determined by the following equation: % Inhibition=(1-cpm with compound/cpm without compound)×100. IC50 was determined by the Microsoft XLfit program.

[2] = target: T2, recombinant human wild-type NDST-2 (Homo sapiens, UniProt P52849); assay: Solid phase SPA assay for N-sulfotransferase activity (wild-type NDST-2); conditions: wild-type NDST-2 0.4 μg/well, fully desulfated heparin pre-coated WGA-SPA beads, 35[S]-PAPS 10 nCi/well, room temperature 5 h
T2 construct: the DNA fragment consisting of nucleotides 133-2651 of the human NDST-2 cDNA; made in house; host or cells: DG44 CHO cells (secreted, harvested from supernatant)
T2 sequence (P52849 40-883 limits assumed): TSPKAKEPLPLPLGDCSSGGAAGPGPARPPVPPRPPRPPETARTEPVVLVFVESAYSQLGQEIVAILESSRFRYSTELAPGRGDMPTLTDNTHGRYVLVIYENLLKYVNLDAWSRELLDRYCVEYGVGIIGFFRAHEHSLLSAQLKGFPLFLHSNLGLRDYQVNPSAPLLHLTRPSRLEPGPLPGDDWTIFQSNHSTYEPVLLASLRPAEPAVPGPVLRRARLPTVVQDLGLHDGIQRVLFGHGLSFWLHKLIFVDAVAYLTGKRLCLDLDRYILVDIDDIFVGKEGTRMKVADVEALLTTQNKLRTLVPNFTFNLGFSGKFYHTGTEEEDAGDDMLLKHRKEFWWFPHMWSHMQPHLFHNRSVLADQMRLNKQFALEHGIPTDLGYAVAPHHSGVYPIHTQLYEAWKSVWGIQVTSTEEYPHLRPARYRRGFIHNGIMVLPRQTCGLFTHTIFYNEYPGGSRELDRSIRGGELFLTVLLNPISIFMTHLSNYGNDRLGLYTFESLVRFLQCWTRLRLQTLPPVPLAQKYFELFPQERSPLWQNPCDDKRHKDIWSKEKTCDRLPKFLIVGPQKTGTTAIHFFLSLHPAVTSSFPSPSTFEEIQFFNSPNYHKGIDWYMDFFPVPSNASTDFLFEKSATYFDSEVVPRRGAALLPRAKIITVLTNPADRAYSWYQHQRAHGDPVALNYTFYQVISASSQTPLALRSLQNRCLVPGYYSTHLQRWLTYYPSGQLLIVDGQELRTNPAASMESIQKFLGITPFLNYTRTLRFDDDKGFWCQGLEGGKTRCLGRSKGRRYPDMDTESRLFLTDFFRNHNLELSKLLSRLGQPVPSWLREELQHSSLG
Procedure: as §1, §2, §3, §4, §5
The plate was sealed and incubated for 2-24 h. Radioactivity of the plate was then read in a Packard TopCount microplate scintillation counter (Packard Instrument, Downers Grove, Ill.). […]
as §6, with “10673-10676].” for “10673-10676]. The PHASE program is an internally developed program for database searches based on ligand molecular shape and pharmacophroic elements.”
Compound A (FIGS. 6A and C) and Compound B (FIGS. 6B and D) in DMSO were added into 96-well white plates at the indicated concentrations. […] The plates were read in the TopCount microplate scintillation counter. […]

[3] = target: T3, recombinant human NDST-2 (wild-type) (Homo sapiens, UniProt P52849); assay: Manual sulfotransferase assay; conditions: final concentration of 6.25 μM; N-acetyl-de-O-sulfated heparin acceptor, 37° C. for 30 min; read-out: percent inhibition of N-sulfotransferase activity
T3 construct: the DNA fragment consisting of nucleotides 133-2651 of the human NDST-2 cDNA; made in house; host or cells: DG44 CHO cells (secreted, harvested from supernatant)
T3 sequence (P52849 40-883 limits assumed): T2 sequence (P52849 40-883 limits assumed)
Procedure: The manual sulfotransferase assays were conducted basically as described by Pettersson [Pettersson, I. et al. (1991) J. Biol. Chem. 266, 8044-8049; which is hereby incorporated herein by reference]. The following components were added into Eppendorf vials at a final volume of 200 μl/vial.
1. 119 μl of the Reaction Buffer whose components are described in EXAMPLE 3 herein
2. 1 μl of N-acetyl-de-O-sulfated heparin used as a sulfate acceptor (A6039, Sigma, 25 mg/ml, […]).
3. 20 μl of enzyme NDST-2 (17.6 μg/ml, […]).
4. 50 μl of test compounds (compound-treated reaction, 25 μM, 6.25 μM/vial) or 50 μl of 10% DMSO in reaction buffer (untreated reaction).
5. 10 μl of ^35[S]-PAPS used as a sulfate donor (2 μCi/ml, 100 nCi/vial).
All vials were incubated at 37° C. for 30 min. Reactions were stopped by the addition of 400 μl of 100% ethanol and 35 μl of 3 M sodium acetate into the vials. The samples were placed on dry ice for 5 min and then centrifuged at speed of 14,000 rpm for 5 min. The supernatants were discarded while the pellets were washed twice with 70% ethanol and then dissolved in 100 μl of water. […] Radioactivity was determined in a Beckman model LS 3800 scintillation counter (Beckman Coulter, Fullerton, Calif.). […]

SMILES | IC50 [1] | IC50 [2] | inhibition at 6.25 µM [3] | Km ([1]; double-reciprocal plot, read-out: Km of PAPS)
O=P(O)(O)CC(Cc1ccc(Cl)cc1)CP(=O)(O)O [Compound A] | ~399 nM | ~1720 nM | 94.7% | 
CC(C)c1ccc(O)c(CN(CP(=O)(O)O)CP(=O)(O)O)c1 [Compound B] | ~520 nM | ~2440 nM | 64.8% | 
Nc1ncnc2c1ncn2[C@@H]1O[C@H](COP(=O)(O)OS(=O)(=O)O)[C@@H](OP(=O)(O)O)[C@H]1O [PAPS, adenosine 3′-phosphate 5′-phosphosulfate, reference compound] |  |  |  | ~1 µM
